PubChem BioAssay AID489017 (The Scripps Research Institute Molecular Screening Center, 2010)
Active and inactive are the calls of the source. The rule behind the calls is not given here.

Legend:
Test in all cases: off-target binding and CYP450 inhibition panel, profiling panel, selectivity assay for S1P4 antagonist project, biochemical, Ricerca HitProfilingScreen (AID 489017)
[1] = target: 5-hydroxytryptamine receptor 2B (Homo sapiens) (UniProt P41595); conditions: Ricerca receptor/enzyme binding panel plus CYP450; Serotonin (5-Hydroxytryptamine) 5-HT2B; at 10 µM; stronger effect = higher value
Adenosine A1 = conditions: Ricerca receptor/enzyme binding panel plus CYP450, at 10 µM, stronger effect = higher value
Adenosine A2A = conditions: Ricerca receptor/enzyme binding panel plus CYP450, at 10 µM, stronger effect = higher value
Adrenergic alpha1A = conditions: Ricerca receptor/enzyme binding panel plus CYP450, at 10 µM, stronger effect = higher value
Adrenergic alpha1B = conditions: Ricerca receptor/enzyme binding panel plus CYP450, at 10 µM, stronger effect = higher value
Adrenergic beta1 = conditions: Ricerca receptor/enzyme binding panel plus CYP450, at 10 µM, stronger effect = higher value
[2] = target: Alpha-2A adrenergic receptor (Homo sapiens) (UniProt P08913); conditions: Ricerca receptor/enzyme binding panel plus CYP450; Adrenergic alpha2A; at 10 µM; stronger effect = higher value
[3] = tested on: Alpha-2A adrenergic receptor (Homo sapiens) + Histamine H1 receptor (Homo sapiens) + Mu-type opioid receptor (Homo sapiens); conditions: Ricerca receptor/enzyme binding panel plus CYP450; at 10 µM; stronger effect = higher value
[4] = target: Beta-2 adrenergic receptor (Homo sapiens) (UniProt P07550); conditions: Ricerca receptor/enzyme binding panel plus CYP450; Adrenergic beta2; at 10 µM; stronger effect = higher value
CYP450 2C19 = conditions: Ricerca receptor/enzyme binding panel plus CYP450, at 10 µM, stronger effect = higher value
Calcium Channel L-Type = conditions: Ricerca receptor/enzyme binding panel plus CYP450, Dihydropyridine site, at 10 µM, stronger effect = higher value
Cannabinoid CB1 = conditions: Ricerca receptor/enzyme binding panel plus CYP450, at 10 µM, stronger effect = higher value
[5] = target: Cytochrome P450 1A2 (Homo sapiens) (UniProt P05177); conditions: Ricerca receptor/enzyme binding panel plus CYP450; CYP450 1A2; at 10 µM; stronger effect = higher value
[6] = target: Cytochrome P450 2C9 (Homo sapiens) (UniProt P11712); conditions: Ricerca receptor/enzyme binding panel plus CYP450; CYP450 2C9; at 10 µM; stronger effect = higher value
[7] = target: Cytochrome P450 2D6 (Homo sapiens) (UniProt P10635); conditions: Ricerca receptor/enzyme binding panel plus CYP450; CYP450 2D6; at 10 µM; stronger effect = higher value
[8] = target: Cytochrome P450 3A4 (Homo sapiens) (UniProt P08684); conditions: Ricerca receptor/enzyme binding panel plus CYP450; CYP450 3A4; at 10 µM; stronger effect = higher value
[9] = target: D(1A) dopamine receptor (Homo sapiens) (UniProt P21728); conditions: Ricerca receptor/enzyme binding panel plus CYP450; Dopamine D1; at 10 µM; stronger effect = higher value
Dopamine D2S = conditions: Ricerca receptor/enzyme binding panel plus CYP450, at 10 µM, stronger effect = higher value
GABAA Central = conditions: at 10 µM, stronger effect = higher value
Glutamate NMDA = conditions: Ricerca receptor/enzyme binding panel plus CYP450, Phencyclidine site, at 10 µM, stronger effect = higher value
Histamine H1 = conditions: Ricerca receptor/enzyme binding panel plus CYP450, at 10 µM, stronger effect = higher value
[10] = target: Muscarinic acetylcholine receptor M2 (Homo sapiens) (UniProt P08172); conditions: Ricerca receptor/enzyme binding panel plus CYP450, at 10 µM, stronger effect = higher value
[11] = target: Muscarinic acetylcholine receptor M3 (Homo sapiens) (UniProt P20309); conditions: Ricerca receptor/enzyme binding panel plus CYP450, at 10 µM, stronger effect = higher value
Nicotinic Acetylcholine = conditions: Ricerca receptor/enzyme binding panel plus CYP450, at 10 µM, stronger effect = higher value
[12] = tested on: Norepinephrine Transporter (NET); conditions: Ricerca receptor/enzyme binding panel plus CYP450, at 10 µM, stronger effect = higher value
Opiate mu (OP3, MOP) = conditions: Ricerca receptor/enzyme binding panel plus CYP450, at 10 µM, stronger effect = higher value
Prostanoid EP4 = conditions: Ricerca receptor/enzyme binding panel plus CYP450, at 10 µM, stronger effect = higher value
Sigma 1 = conditions: Ricerca receptor/enzyme binding panel plus CYP450, at 10 µM, stronger effect = higher value
Sodium Channel = conditions: Ricerca receptor/enzyme binding panel plus CYP450, site 2, at 10 µM, stronger effect = higher value
[13] = target: Voltage-gated inwardly rectifying potassium channel KCNH2 (Homo sapiens) (UniProt Q12809); conditions: Ricerca receptor/enzyme binding panel plus CYP450; Potassium Channel hERG; at 10 µM; stronger effect = higher value
Chain of Voltage-gated inwardly rectifying potassium channel KCNH2 (Homo sapiens) (Q12809 whole entry, looked up): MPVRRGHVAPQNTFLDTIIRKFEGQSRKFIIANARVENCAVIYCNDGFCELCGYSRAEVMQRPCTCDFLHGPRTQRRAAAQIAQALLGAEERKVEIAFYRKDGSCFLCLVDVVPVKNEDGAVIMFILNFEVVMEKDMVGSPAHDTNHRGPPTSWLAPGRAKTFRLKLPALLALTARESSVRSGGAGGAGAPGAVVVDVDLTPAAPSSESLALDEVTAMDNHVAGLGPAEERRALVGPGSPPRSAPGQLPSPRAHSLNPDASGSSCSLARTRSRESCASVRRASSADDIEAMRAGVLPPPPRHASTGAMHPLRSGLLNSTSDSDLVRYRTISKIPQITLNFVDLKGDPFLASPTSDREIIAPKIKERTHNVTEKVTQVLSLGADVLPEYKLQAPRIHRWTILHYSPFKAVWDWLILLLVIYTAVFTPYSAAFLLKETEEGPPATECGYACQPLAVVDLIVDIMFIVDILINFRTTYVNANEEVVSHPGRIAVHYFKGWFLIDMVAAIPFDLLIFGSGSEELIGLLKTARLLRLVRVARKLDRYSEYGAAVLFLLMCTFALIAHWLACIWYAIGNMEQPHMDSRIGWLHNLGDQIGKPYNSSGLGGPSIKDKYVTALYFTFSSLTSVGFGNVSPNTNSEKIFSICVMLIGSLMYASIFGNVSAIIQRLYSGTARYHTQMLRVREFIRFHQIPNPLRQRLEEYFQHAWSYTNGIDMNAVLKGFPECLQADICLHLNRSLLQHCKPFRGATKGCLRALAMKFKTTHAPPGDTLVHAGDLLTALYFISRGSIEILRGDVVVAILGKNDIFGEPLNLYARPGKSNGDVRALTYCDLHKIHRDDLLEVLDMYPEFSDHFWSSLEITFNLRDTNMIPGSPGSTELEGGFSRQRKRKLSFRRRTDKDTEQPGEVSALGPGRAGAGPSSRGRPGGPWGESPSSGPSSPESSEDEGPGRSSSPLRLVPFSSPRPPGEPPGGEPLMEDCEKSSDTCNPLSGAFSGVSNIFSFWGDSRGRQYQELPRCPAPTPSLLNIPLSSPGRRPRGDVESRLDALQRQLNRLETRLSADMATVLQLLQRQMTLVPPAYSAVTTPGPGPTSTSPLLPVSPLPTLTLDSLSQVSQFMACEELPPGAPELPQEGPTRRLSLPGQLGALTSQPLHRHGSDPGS

Chain of D(1A) dopamine receptor (Homo sapiens) (P21728 whole entry, looked up): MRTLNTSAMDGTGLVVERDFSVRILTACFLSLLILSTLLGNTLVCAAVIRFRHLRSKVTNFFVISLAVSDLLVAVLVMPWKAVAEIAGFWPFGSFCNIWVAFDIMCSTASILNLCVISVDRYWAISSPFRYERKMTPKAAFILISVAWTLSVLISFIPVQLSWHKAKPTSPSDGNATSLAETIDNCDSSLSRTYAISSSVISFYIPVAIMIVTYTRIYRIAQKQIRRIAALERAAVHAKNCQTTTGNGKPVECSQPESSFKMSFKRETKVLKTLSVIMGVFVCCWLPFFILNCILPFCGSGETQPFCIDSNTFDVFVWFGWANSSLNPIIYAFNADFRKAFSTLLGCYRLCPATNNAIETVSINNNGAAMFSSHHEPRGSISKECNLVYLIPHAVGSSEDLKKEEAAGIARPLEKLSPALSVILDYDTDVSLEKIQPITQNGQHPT
Chain of 5-hydroxytryptamine receptor 2B (Homo sapiens) (P41595 whole entry, looked up): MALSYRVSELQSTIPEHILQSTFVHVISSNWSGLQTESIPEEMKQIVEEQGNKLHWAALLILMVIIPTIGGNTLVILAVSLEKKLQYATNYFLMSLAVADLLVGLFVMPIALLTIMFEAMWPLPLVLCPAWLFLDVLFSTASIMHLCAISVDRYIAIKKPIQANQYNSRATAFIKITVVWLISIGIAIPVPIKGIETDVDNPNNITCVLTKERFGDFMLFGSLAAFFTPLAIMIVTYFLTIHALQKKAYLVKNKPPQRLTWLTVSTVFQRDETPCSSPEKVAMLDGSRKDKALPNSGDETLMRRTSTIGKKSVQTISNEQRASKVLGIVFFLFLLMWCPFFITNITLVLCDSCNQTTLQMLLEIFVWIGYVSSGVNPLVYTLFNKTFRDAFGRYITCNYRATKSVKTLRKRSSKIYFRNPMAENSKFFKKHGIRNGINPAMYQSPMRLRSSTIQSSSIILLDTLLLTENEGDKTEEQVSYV
Chain of Muscarinic acetylcholine receptor M3 (Homo sapiens) (P20309 whole entry, looked up): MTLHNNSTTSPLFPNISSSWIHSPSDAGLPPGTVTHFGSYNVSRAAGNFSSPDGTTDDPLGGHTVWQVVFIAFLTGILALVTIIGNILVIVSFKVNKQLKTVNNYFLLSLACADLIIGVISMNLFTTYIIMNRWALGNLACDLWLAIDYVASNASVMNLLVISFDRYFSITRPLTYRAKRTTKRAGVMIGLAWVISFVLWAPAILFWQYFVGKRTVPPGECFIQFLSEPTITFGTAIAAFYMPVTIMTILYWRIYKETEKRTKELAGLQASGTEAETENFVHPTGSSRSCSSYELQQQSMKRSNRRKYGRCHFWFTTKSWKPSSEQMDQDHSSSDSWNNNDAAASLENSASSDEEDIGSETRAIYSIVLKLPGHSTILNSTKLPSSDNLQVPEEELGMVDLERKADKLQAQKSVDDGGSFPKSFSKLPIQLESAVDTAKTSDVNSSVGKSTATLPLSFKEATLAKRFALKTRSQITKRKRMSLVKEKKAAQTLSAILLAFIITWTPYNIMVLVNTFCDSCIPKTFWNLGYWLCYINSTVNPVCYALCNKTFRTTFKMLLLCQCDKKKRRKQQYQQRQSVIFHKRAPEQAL
Chain of Beta-2 adrenergic receptor (Homo sapiens) (P07550 whole entry, looked up): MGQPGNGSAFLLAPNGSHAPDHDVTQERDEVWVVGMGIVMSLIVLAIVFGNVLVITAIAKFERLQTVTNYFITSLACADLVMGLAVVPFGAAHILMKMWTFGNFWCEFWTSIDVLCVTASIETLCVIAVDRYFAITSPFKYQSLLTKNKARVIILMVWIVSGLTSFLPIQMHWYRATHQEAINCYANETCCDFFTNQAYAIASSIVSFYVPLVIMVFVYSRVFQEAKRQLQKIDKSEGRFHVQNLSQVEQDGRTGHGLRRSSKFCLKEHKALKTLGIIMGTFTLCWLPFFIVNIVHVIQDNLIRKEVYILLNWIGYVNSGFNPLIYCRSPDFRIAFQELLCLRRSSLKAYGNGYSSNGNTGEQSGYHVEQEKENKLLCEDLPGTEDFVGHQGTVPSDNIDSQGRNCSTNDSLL
Chain of Cytochrome P450 3A4 (Homo sapiens) (P08684 whole entry, looked up): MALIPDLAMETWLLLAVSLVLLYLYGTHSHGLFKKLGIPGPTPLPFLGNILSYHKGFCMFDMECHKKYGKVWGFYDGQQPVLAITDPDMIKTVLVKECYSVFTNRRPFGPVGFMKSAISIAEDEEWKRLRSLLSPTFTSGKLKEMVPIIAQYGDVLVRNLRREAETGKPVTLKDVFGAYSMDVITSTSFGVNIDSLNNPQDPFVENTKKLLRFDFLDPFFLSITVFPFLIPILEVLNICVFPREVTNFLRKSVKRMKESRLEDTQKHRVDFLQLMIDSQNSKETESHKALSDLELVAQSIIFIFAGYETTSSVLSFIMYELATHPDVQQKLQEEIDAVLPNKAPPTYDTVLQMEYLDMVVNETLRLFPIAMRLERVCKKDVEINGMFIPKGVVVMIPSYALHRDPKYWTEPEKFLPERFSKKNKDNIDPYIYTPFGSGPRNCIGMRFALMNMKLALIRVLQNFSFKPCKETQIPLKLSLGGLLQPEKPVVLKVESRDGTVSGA
Chain of Cytochrome P450 2D6 (Homo sapiens) (P10635 whole entry, looked up): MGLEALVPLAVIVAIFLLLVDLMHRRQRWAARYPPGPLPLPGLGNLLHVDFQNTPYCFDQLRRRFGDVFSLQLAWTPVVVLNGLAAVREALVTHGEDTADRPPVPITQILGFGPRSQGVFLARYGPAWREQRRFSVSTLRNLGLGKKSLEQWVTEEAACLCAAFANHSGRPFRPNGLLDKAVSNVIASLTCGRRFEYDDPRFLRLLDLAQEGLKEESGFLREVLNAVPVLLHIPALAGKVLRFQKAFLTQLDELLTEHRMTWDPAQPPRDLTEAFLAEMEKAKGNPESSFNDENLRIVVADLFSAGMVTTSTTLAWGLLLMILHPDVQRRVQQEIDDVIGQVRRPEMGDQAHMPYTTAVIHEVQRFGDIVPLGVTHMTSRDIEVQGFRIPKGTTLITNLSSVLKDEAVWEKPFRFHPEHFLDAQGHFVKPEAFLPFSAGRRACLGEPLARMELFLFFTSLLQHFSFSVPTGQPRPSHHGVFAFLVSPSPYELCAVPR
Chain of Alpha-2A adrenergic receptor (Homo sapiens) (P08913 whole entry, looked up): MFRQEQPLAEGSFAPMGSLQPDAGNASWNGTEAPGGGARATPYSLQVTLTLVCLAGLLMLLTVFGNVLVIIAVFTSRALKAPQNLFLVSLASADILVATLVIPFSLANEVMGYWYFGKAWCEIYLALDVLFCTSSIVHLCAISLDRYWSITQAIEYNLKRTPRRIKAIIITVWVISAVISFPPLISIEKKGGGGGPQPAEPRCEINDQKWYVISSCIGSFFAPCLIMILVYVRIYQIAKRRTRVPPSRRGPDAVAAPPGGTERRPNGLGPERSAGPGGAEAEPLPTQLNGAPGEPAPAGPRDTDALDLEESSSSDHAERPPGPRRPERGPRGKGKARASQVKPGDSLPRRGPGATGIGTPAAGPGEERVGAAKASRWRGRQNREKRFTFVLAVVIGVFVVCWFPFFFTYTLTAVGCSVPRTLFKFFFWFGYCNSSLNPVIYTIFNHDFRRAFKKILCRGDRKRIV
Chain of Muscarinic acetylcholine receptor M2 (Homo sapiens) (P08172 whole entry, looked up): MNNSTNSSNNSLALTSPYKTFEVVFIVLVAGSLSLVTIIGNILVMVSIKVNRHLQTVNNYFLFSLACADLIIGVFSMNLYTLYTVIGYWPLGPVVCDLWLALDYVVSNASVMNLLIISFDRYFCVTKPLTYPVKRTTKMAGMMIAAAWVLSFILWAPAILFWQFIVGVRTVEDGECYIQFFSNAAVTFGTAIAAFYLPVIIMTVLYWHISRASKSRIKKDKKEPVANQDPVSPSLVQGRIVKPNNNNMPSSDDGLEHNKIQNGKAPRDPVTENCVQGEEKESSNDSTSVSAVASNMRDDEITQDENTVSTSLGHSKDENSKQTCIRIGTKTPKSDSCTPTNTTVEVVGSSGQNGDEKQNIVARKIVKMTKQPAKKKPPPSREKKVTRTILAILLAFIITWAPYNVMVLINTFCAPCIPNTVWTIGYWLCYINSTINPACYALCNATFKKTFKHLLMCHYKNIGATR

SMILES: CCc1cccc(CC)c1NC(=O)c1ccc(-c2cc(Cl)ccc2Cl)o1
- inhibition [1]: 40% (inactive)
- inhibition (Adenosine A1): 0% (inactive)
- inhibition (Adenosine A2A): -6% (inactive)
- inhibition (Adrenergic alpha1A): -3% (inactive)
- inhibition (Adrenergic alpha1B): -6% (inactive)
- inhibition (Adrenergic beta1): 0% (inactive)
- inhibition [2]: 18% (inactive)
- inhibition [3]: -4% (inactive)
- inhibition [4]: 11% (inactive)
- inhibition (CYP450 2C19): 37% (inactive)
- inhibition (Calcium Channel L-Type): 12% (inactive)
- inhibition (Cannabinoid CB1): 15% (inactive)
- inhibition [5]: 27% (inactive)
- inhibition [6]: 51%
- inhibition [7]: 1% (inactive)
- inhibition [8]: 22% (inactive)
- inhibition [9]: 5% (inactive)
- inhibition (Dopamine D2S): 13% (inactive)
- inhibition (GABAA Central; Ricerca receptor/enzyme binding panel plus CYP450, Flunitrazepam site): 7% (inactive)
- inhibition (GABAA Central; Ricerca receptor/enzyme binding panel plus CYP450, Muscimol site): 8% (inactive)
- inhibition (Glutamate NMDA): 1% (inactive)
- inhibition (Histamine H1): 30% (inactive)
- inhibition [10]: -3% (inactive)
- inhibition [11]: 2% (inactive)
- inhibition (Nicotinic Acetylcholine): -12% (inactive)
- inhibition [12]: 17% (inactive)
- inhibition (Opiate mu (OP3, MOP)): 8% (inactive)
- inhibition (Prostanoid EP4): 27% (inactive)
- inhibition (Sigma 1): -7% (inactive)
- inhibition (Sodium Channel): 43% (inactive)
- inhibition [13]: 10% (inactive)
